Experiments:
[1] = biological target: T1, Stimulator of interferon genes protein (Homo sapiens, UniProt Q86WV6); test: Agonist activity at STING in human […] KO-STING cells incubated for 20 hrs by Quanti-luc reagent based assay; format: cell-based, THP1-Dual KO-STING
THP1-Dual = test: Cytotoxicity against human THP1-Dual habouring STING assessed as inhibition of cell growth by MTS assay; format: functional, cell-based
[2] = Cytotoxicity against human THP1-Dual KO-STING cells assessed as inhibition of cell growth by MTS assay; format: functional, cell-based
[3] = biological target: T1, Stimulator of interferon genes protein; test: Agonist activity at STING in human THP1-Dual cells incubated for 20 hrs by Quanti-luc reagent based assay; format: cell-based

T1 sequence (Q86WV6 whole entry): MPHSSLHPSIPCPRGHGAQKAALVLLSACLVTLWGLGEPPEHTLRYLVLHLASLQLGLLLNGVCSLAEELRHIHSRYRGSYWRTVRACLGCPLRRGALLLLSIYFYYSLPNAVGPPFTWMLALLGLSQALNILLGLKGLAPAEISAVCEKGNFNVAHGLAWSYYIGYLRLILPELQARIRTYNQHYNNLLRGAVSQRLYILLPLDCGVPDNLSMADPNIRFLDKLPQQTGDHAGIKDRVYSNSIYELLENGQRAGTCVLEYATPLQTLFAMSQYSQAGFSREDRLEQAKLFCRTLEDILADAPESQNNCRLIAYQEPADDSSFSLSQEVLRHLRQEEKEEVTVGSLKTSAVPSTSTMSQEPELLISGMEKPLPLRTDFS

Structure (SMILES) | EC50 [1] [µM] | IC50 (THP1-Dual) [µM] | IC50 [2] [µM] | EC50 [3] [µM]
CCn1nc(C)cc1C(=O)Nc1nc2cc(C(N)=O)cc(OC)c2n1NCCCC(=O)NCc1ccc(OC)cc1 | > 100 | > 100 | > 100 | 4.1
CCn1nc(C)cc1C(=O)Nc1nc2cc(C(N)=O)cc(OC)c2n1NCCCC(=O)NCc1ccc(Oc2ccccc2)cc1 | > 100 | > 100 | > 100 | 28.8
CCn1nc(C)cc1C(=O)Nc1nc2cc(C(N)=O)cc(OC)c2n1CCCN1CCC(C(=O)Nc2ccccc2)CC1 | > 100 | > 100 | > 100 | > 100
CCn1nc(C)cc1C(=O)Nc1nc2cc(C(N)=O)cc(OC)c2n1C/C=C/CNc1ncc(C(N)=O)cn1 | > 100 | > 100 | > 100 | > 100
CCn1nc(C)cc1C(=O)Nc1nc2cc(C(N)=O)cc(OC)c2n1NCCCC(=O)NCc1ccc(Cl)cc1Br | > 100 | > 100 | > 100 | 96.3
CCn1nc(C)cc1C(=O)Nc1nc2cc(C(N)=O)cc(OCCCOC)c2n1NCCCNC(=O)c1ccc2ccccc2c1 | > 100 | 10.6 | 14.8 | 0.53
CCn1nc(C)cc1C(=O)Nc1nc2cc(C(N)=O)cc(OC)c2n1C/C=C/CNC(=O)Cc1ccccc1 | > 100 | > 100 | > 100 | > 100
CCn1nc(C)cc1C(=O)Nc1nc2cc(C(N)=O)cc(OC)c2n1CCCC(=O)NCc1ccccc1 | > 100 | > 100 | > 100 | 4.13
CCn1nc(C)cc1C(=O)Nc1nc2cc(C(N)=O)cc(OC)c2n1Cc1cn(Cc2ccc3ccccc3c2)nn1 | > 100 | > 100 | > 100 | > 100
CCn1nc(C)cc1C(=O)Nc1nc2cc(C(N)=O)cc(OC)c2n1C/C=C/Cn1c(=O)[nH]c2cc(C(N)=O)ccc21 | > 100 | > 100 | > 100 | > 100
CCn1nc(C)cc1C(=O)Nc1nc2cc(C(N)=O)cc(OC)c2n1NCCCNC(=O)Nc1ccc2ccccc2c1 | > 100 | > 100 | > 100 | > 100
CCn1nc(C)cc1C(=O)Nc1nc2cc(C(N)=O)cc(OC)c2n1NCCCC(=O)NCc1ccc(Cl)cc1 | > 100 | > 100 | > 100 | 3.22
CCn1nc(C)cc1C(=O)Nc1nc2cc(C(N)=O)cc(OC)c2n1NCCCC(=O)N(C)Cc1ccccc1 | > 100 | > 100 | > 100 | 11.2
CCn1nc(C)cc1C(=O)Nc1nc2cc(C(N)=O)cc(OC)c2n1CCCN1CCN(C(=O)c2ccc3ccccc3c2)CC1 | > 100 | > 100 | > 100 | > 100
CCn1nc(C)cc1C(=O)Nc1nc2cc(C(N)=O)cc(OC)c2n1NCCCNC(=O)NCc1ccc2ccccc2c1 | > 100 | > 100 | > 100 | > 100
CCn1nc(C)cc1C(=O)Nc1nc2cc(C(N)=O)cc(OC)c2n1CCCC(=O)Nc1ccc2ccccc2c1 | > 100 | > 100 | > 100 | 9.83
CCn1nc(C)cc1C(=O)Nc1nc2cc(C(N)=O)cc(OC)c2n1C/C=C/CNC(=O)c1cnccn1 | > 100 | > 100 | > 100 | > 100
CCn1nc(C)cc1C(=O)Nc1nc2cc(C(N)=O)cc(OC)c2n1CCOCCNC(=O)c1ccc2ccccc2c1 | > 100 | > 100 | > 100 | > 100
CCn1nc(C)cc1C(=O)Nc1nc2cc(C(N)=O)cc(OC)c2n1CCOCCNC(=O)c1ccc(C(F)(F)F)cc1 | > 100 | > 100 | > 100 | > 100
CCn1nc(C)cc1C(=O)Nc1nc2cc(C(N)=O)cc(OC)c2n1NCCCC(=O)NCc1ccc(Br)cc1F | > 100 | > 100 | > 100 | 5.28

Structure (SMILES) | EC50 [1] [µM] | IC50 (THP1-Dual) [µM] | IC50 [2] [µM] | EC50 [3] [µM]
CCn1nc(C)cc1C(=O)Nc1nc2cc(C(N)=O)cc(OC)c2n1NCCCC(=O)NCc1ccc(C(F)(F)F)cc1 | > 100 | > 100 | > 100 | 13
CCn1nc(C)cc1C(=O)Nc1nc2cc(C(N)=O)cc(OC)c2n1C/C=C/CNC(=O)C1CCCCC1 | > 100 | > 100 | > 100 | > 100
CCn1nc(C)cc1C(=O)Nc1nc2cc(C(N)=O)cc(OC)c2n1CCOCCNC(=O)c1ccc(OC)cc1 | > 100 | > 100 | > 100 | > 100
CCn1nc(C)cc1C(=O)Nc1nc2cc(C(N)=O)cc(OC)c2n1C/C=C/CNc1ccc(C(N)=O)cc1[N+](=O)[O-] | > 100 | > 100 | > 100 | > 100
CCn1nc(C)cc1C(=O)Nc1nc2cc(C(N)=O)cc(OC)c2n1C/C=C/CNC(=O)c1ccccc1 | > 100 | > 100 | > 100 | 47.1
CCn1nc(C)cc1C(=O)Nc1nc2cc(C(N)=O)cc(OC)c2n1CCCN1CCC(NC(=O)c2ccc3ccccc3c2)CC1 | > 100 | > 100 | > 100 | > 100
CCn1nc(C)cc1C(=O)Nc1nc2cc(C(N)=O)cc(OC)c2n1C/C=C/CNC(=O)c1ccc(Cl)cc1 | > 100 | > 100 | > 100 | > 100
CCn1nc(C)cc1C(=O)Nc1nc2cc(C(N)=O)cc(OC)c2n1Cc1cn(CCc2ccccc2)nn1 | > 100 | > 100 | > 100 | > 100
CCn1nc(C)cc1C(=O)Nc1nc2cc(C(N)=O)cc(OC)c2n1CCCC(=O)NCc1ccc2ccccc2c1 | > 100 | > 100 | > 100 | 7.04
CCn1nc(C)cc1C(=O)Nc1nc2cc(C(N)=O)cc(OCC3COC3)c2n1NCCCNC(=O)c1ccc2ccccc2c1 | > 100 | 11.3 | 18.2 | 39.4
CCn1nc(C)cc1C(=O)Nc1nc2cc(C(N)=O)cc(OC)c2n1C/C=C/CNC(=O)c1cc(F)nc(F)c1 | > 100 | > 100 | > 100 | > 100
CCn1nc(C)cc1C(=O)Nc1nc2cc(C(N)=O)cc(OC)c2n1C/C=C/CNC(=O)c1ccc(C(F)(F)F)cc1 | > 100 | > 100 | > 100 | > 100
CCn1nc(C)cc1C(=O)Nc1nc2cc(C(N)=O)cc(OC)c2n1CCCNC(=O)c1ccc(-c2ccccc2)cc1 | > 100 | > 100 | > 100 | > 100
CCn1nc(C)cc1C(=O)Nc1nc2cc(C(N)=O)cc(OC)c2n1C/C=C/CNC(=O)NCc1ccccc1 | > 100 | > 100 | > 100 | > 100
CCn1nc(C)cc1C(=O)Nc1nc2cc(C(N)=O)cc(OC)c2n1C/C=C/CNC(=O)c1cnc(OC)cn1 | > 100 | > 100 | > 100 | > 100
CCn1nc(C)cc1C(=O)Nc1nc2cc(C(N)=O)cc(OCC3CC3)c2n1NCCCNC(=O)c1ccc2ccccc2c1 | > 100 | > 100 | 12.1 | 1.12
CCn1nc(C)cc1C(=O)Nc1nc2cc(C(N)=O)cc(OC)c2n1C/C=C/CNC(=O)c1cnc2ccccc2c1 | > 100 | > 100 | > 100 | > 100
CCn1nc(C)cc1C(=O)Nc1nc2cc(C(N)=O)cc(OCC3CC3)c2n1NCCCC(=O)NCc1ccc(F)cc1 | > 100 | > 100 | > 100 | 1.42
CCn1nc(C)cc1C(=O)Nc1nc2cc(C(N)=O)cc(OC)c2n1CCCN1CCN(Cc2ccc3ccccc3c2)C(=O)C1 | > 100 | > 100 | > 100 | > 100
